Read-outs that look alike come from different tables or passages of the source.
Columns and labels:
recombinant CYP3A4 = target: T1, recombinant CYP3A4 (Homo sapiens, UniProt P08684); experiment: Incubation with recombinant CYP3A4 enzymes; type: in vitro ADME; details: for formation of metabolite from psilocin: rec. CYP3A4
T1 construct: purchased Corning Life Sciences B.V
Procedure: (§1) Corning UltraPool human liver microsomes (HLM) 150 (20 mg/mL), human intestinal microsomes (HIM) pool (10 mg/mL) as well as recombinant human CYP enzymes (with P450 oxidoreductase, OR) including CYP1A2+OR (0.5 nmol), CYP2B6+OR (0.5 nmol), CYP2C8+OR (1.0 nmol), CYP2C9*1+OR (1 nmol), CYP2C19+OR (0.5 nmol), CYP2D6*1+OR (0.5 nmol), CYP2E1+OR + cytochrome b5 (1 nmol), CYP3A4+OR + cytochrome b5 (0.5 nmol), MAO-A (5 mg/mL), MAO-B (5 mg/mL), and UGT1A10 (5 mg/mL) were purchased from Corning Life Sciences B.V (Amsterdam, Netherlands). All microsomes and recombinant enzyme solutions were aliquoted and stored at −80 °C until further use.
(§2) The total volume of the reaction mixture was 500 μL. […] Samples were either directly analyzed by liquid chromatography tandem mass spectrometry (LC-MS/MS) or briefly stored at −20°C until analysis.

recombinant MAO-A = target: T2, recombinant MAO-A (Homo sapiens, UniProt P21397); experiment: Incubation with recombinant MAO-A enzymes; type: in vitro ADME; details: for metabolite concentration formed from psilocin: 300 min; for metabolite formation from psilocin in presence of clorgyline: rec. MAO-A with clorgyline
T2 construct: purchased Corning Life Sciences B.V
T2 sequence (P21397 1-527): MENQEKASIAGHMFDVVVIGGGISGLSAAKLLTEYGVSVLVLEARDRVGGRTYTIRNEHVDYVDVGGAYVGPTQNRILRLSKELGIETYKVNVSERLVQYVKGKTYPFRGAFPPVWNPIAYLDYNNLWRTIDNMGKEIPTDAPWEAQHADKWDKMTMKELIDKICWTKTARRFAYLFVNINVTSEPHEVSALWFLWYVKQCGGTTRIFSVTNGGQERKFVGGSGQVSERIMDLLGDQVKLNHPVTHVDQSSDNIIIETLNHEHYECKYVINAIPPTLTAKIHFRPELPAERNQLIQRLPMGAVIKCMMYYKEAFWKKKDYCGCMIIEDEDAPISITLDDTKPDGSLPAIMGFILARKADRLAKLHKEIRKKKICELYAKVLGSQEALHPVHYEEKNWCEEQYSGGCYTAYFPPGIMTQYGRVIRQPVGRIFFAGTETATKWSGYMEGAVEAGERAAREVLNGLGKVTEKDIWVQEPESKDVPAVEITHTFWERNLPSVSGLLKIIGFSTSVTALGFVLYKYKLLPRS
Procedure: as §1
The MAO inhibition assay was based on the assay described in section 2.5.1 and performed identically if not otherwise stated.

human 5-HT1A receptor = target: T3, human 5-HT1A receptor (Homo sapiens, UniProt P08908); experiment: 5-HT activation potency (IP1 accumulation), 5-HT1A; type: cell-based; set-up: expressed in transfected cells
T3 sequence (P08908 1-422): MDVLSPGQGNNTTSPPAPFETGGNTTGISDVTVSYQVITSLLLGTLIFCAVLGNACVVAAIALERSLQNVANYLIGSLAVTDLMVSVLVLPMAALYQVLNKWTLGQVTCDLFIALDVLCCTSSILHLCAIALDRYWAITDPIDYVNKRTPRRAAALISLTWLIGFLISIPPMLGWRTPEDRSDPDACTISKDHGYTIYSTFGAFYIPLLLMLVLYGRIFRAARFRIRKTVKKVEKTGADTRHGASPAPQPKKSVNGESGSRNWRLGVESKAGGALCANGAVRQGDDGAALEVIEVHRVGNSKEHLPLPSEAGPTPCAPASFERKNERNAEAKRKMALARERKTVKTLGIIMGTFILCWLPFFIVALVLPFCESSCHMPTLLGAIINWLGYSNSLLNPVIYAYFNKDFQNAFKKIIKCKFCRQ
Procedure: . […] NIH/3T3 cells stably expressing the human 5-HT1A, 5-HT2A, and 5-HT2B receptors were seeded at a density of 3,000 cells (5-HT1A and 5-HT2A) or 4,000 cells (5-HT2B) in 384-well plates using Opti-MEM medium from Gibco (ThermoFisher, Life Technologies, Zug, Switzerland). Subsequently, the test compounds were introduced, and the plates were incubated for 90 min at 37°C, followed by a 60 min incubation with Anti-IP1-Cryptate and IP1-d2 at room temperature. The formation of stimulated IP1 was quantified by homogeneous time-resolved fluorescence (HTRF) measurements using a BioTek Synergy H1 microplate reader (Agilent Technologies, Basel, Switzerland). The obtained raw data for receptor activation were subjected to normalization, wherein the baseline signal was set at 0%, and the maximum signal stimulated by 5-HT at the specific receptor was established as 100%.

[1] = Metabolites in human plasma after oral psilocybin (reanalysed study samples); details: for Tmax: human, plasma, po, 30 mg
recombinant CYP2D6 = target: T4, recombinant CYP2D6 (Homo sapiens, UniProt P10635); experiment: Incubation with recombinant CYP2D6 enzymes; type: in vitro ADME
T4 construct: purchased Corning Life Sciences B.V
T4 sequence (P10635 whole entry): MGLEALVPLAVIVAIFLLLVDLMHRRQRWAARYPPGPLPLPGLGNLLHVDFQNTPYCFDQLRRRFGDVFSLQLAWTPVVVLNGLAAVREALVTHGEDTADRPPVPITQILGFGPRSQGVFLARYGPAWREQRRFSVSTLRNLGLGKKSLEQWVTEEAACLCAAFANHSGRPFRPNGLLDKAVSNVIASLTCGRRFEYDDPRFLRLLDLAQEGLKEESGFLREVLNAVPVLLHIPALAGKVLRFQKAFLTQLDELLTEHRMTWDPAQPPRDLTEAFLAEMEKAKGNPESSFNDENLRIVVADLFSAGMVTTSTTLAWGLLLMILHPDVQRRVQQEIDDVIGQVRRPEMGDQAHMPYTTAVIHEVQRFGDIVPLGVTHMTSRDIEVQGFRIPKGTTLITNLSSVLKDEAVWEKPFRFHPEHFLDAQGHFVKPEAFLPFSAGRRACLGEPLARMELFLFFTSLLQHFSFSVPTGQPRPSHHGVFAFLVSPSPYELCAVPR
Procedure: as §1, §2

[2] = NIH/3T3 cells, IP1 accumulation, read-out: h5-HT1A Activation potency EC50 ± SD

T1 sequence (P08684 2-503 limits assumed): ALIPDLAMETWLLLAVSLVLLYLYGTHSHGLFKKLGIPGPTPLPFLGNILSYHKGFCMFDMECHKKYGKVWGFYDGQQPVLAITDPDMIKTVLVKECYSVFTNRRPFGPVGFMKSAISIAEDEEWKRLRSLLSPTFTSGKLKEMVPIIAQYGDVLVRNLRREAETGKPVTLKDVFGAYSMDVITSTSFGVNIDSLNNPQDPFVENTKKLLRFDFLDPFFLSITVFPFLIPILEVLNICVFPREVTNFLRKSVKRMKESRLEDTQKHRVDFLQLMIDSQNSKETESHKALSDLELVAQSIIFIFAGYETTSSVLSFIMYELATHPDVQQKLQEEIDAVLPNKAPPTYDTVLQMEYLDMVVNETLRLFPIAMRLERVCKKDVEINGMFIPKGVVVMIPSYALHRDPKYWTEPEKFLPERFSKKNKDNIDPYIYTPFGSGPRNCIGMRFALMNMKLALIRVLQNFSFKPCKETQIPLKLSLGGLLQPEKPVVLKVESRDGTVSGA

| SMILES | formation of metabolite from psilocin (recombinant CYP3A4) | metabolite concentration formed from psilocin (recombinant MAO-A; 1,000 nM psilocin, rec. MAO-A) | metabolite formation from psilocin in presence of clorgyline (recombinant MAO-A) | EC50 (human 5-HT1A receptor; [2]) | Tmax [1] | formation of metabolite from psilocin (recombinant CYP2D6; rec. CYP2D6) | detection in human plasma ([1]; 30 mg psilocybin p.o., n = 5) | decrease of psilocin concentration / psilocin metabolized (recombinant CYP3A4; 1,000 nM psilocin, rec. CYP3A4, 240 min) | psilocin concentration (recombinant CYP3A4; rec. CYP3A4, t = 0 min) | psilocin concentration (recombinant CYP3A4; rec. CYP3A4, t = 240 min) | psilocin metabolized (recombinant CYP3A4; rec. CYP3A4 with ketoconazole, 240 min) | psilocin concentration (recombinant CYP3A4; rec. CYP3A4 with ketoconazole, t = 0 min) | psilocin concentration (recombinant CYP3A4; rec. CYP3A4 with ketoconazole, t = 240 min) | change of psilocin concentration (recombinant MAO-A; 1,000 nM psilocin, rec. MAO-A) | EC50 (human 5-HT1A receptor) | psilocin concentration (mean ± SD) (recombinant CYP2D6; 1,000 nM psilocin, rec. CYP2D6, t = 0 min) | psilocin concentration (mean ± SD) (recombinant CYP2D6; 1,000 nM psilocin, rec. CYP2D6, t = 240 min) | psilocin metabolized (recombinant CYP2D6; rec. CYP2D6) | psilocin concentration (mean ± SD) (recombinant CYP2D6; rec. CYP2D6 with quinidine, t = 0 min) | psilocin concentration (mean ± SD) (recombinant CYP2D6; rec. CYP2D6 with quinidine, t = 240 min) |
| --- | --- | --- | --- | --- | --- | --- | --- | --- | --- | --- | --- | --- | --- | --- | --- | --- | --- | --- | --- | --- |
| O=C(O)Cc1c[nH]c2cccc(O)c12 [4-HIAA, 4-hydroxyindole-3-acetic acid] | neither observed | 20.1 ± 2.8 nM | inhibited | > 10 µM | ~2.5 h | neither observed |  |  |  |  |  |  |  |  |  |  |  |  |  |  |
| OCCc1c[nH]c2cccc(O)c12 [4-HTP, 4-hydroxytryptophol] | neither observed | 16.9 ± 2.9 nM | inhibited | > 10 µM |  | neither observed | neither norpsilocin nor 4-HTP was detected |  |  |  |  |  |  |  |  |  |  |  |  |  |
| CN(C)CCc1c[nH]c2cccc(O)c12 [psilocin, 4-hydroxy-N,N-dimethyltryptamine] |  |  |  |  | ~2.5 h |  |  | 40% | 916 ± 145 nM | 546 ± 41 nM | 26% | 973 ± 133 nM | 720 ± 71 nM | did not visibly decrease | 0.0017 ± 0.0024 µM | 937 ± 145 nM | 21.1 ± 14.2 nM | ~100% | 1,081 ± 241 nM | 747 ± 30 nM |

From article PMC11089204 (Frontiers in Pharmacology, 2024)
